Entries after “also recorded” stand apart in the source; their conditions may differ.
Key:
PCSK9/LDLR interaction [1] = target: T1, PCSK9/LDLR interaction (Homo sapiens, UniProt Q8NBP7); test: LDLR upregulation in HepG2 cells; type: cell-based; parameters: the human full-length PCSK9 was cloned; expressed in transfected cells; conditions: for up-regulation of endogenously expressed LDLR: compounds 1-50 uM; for EC50: endogenously expressed LDLR, transfected with PCSK9, compounds 1-50 uM, 43 hours, read-out: EC50 of up-regulation of LDLR
Description: (§1) HepG2 cells were seeded into 96 well plates in a MEM containing 10% Fetal Bovine Serum media and incubated overnight at 37° C. Cells were transiently transfected with PCSK9 cDNA constructs using the Lipofectamine-LTX. Compounds (1-50 uM) were added, followed by additional 43 hours of incubation. The cells were lysed and analyzed for LDLR expression and cell viability determined as described in FIG. 8.
(§2) Considering the difficulty in assaying the LDLR/PCSK9 binding, the approach was to develop and implement an innovative recombinant cell based assay where the full-length PCSK9 and the LDLR genes are expressed into HEK-293 cells, and allowed to decrease the LDLR level by PCSK9 (FIG. 7). Compounds that prevent the LDLR degradation without preventing the auto-processing and secretion of the PCSK9 were selected as potential candidates and were further evaluated using additional cell based assay using endogenously expressed LDLR in liver cells (HepG2 cells).
The compounds SBC-110,424, SBC-110, 433, and SBC-115,076 were also validated for their ability to up-regulate the endogenously expressed LDLR in HepG2 cells.

PCSK9/LDLR interaction [2] = target: T1, PCSK9/LDLR interaction; test: Recombinant cell based assay: LDLR upregulation in HEK293 cells transfected with LDLR and PCSK9; parameters: the human full-length PCSK9 was cloned; expressed in transfected cells; host or cells: HEK-293T; conditions: for increase in the LDLR (intracellular recombinant LDLR upregulation) as comparable to control / EC50: HEK293 cells transfected with LDLR and PCSK9; for increase in the LDLR (intracellular recombinant LDLR upregulation) as comparable to control: compounds 1-50 μM; for EC50: compounds 1-50 uM, 43 hours incubation, read-out: EC50 of LDLR up-regulation; for IC50s (increase in the LDLR): PCSK9/LDLR HEK293 recombinant cell based assay
Description: as §1, with “HEK-293T” for “HepG2”, “DMEM” for “MEM”, “with LDLR and” for “with”, “7.” for “8.”
as §1, with “HEK-293T” for “HepG2”, “DMEM” for “MEM”, “with LDLR and” for “with”, “8. […] Compound SBC-130,022 has no effect in up-regulating LDLR.” for “8.”
as §2
Preparation of constructs: the human full-length PCSK9 was cloned. The cDNA encoding the PCSK9 sequence with and without a FLAG epitope tag (DYKDDDDK) were cloned by PCR and subcloned into mammalian expression vector containing the cytomegalovirus promoter-enhancer (pCMV-PCSK9-FLAG) (pCDNA3.1/PCSK9). For LDLR, the coding sequence was constructed without tag in mammalian expression vector (pCMV-LDLR) (pCDNA3.1/LDLR). The constructs were confirmed by sequence analysis
The pCDNA3.1/PCSK9, and the pCDNA3.1/LDLR constructs were used to transiently transfect mammalian cells. The human embryonic kidney (HEK)-293 cells were seeded (1×10^5 cells/well) in 24-well plates. Expression plasmids ([…]) were transiently transfected into HEK-293 cells with lipofectamine (Invitrogen) according to the manufacturer's protocol. Twenty four to forty eight hours after transfection, cells were harvested. The cells were then be lysed. Both cell lysate and supernatant were subjected to SDS-PAGE and immunoblot analysis using an anti-PCSK9 or LDLR antibody.
240 compounds identified from the virtual screen in a cell based assay for their potential to upregulate the LDLR in the presence of PCSK9 were tested as described above. Initial screening was done using 50 μM of the compounds. Each compound was added to the cell media in triplicates, and intrecellar LDLR was detected as described above. Each set of compounds were screened at least twice with all appropriate controls. Compounds that upregulate the LDLR were selected for further evaluation.
From the initial screening, 24 compounds were identified as potential hits. Hits confirmation was repeated in triplicates using 50 μM.

T1 sequence (Q8NBP7 153-692): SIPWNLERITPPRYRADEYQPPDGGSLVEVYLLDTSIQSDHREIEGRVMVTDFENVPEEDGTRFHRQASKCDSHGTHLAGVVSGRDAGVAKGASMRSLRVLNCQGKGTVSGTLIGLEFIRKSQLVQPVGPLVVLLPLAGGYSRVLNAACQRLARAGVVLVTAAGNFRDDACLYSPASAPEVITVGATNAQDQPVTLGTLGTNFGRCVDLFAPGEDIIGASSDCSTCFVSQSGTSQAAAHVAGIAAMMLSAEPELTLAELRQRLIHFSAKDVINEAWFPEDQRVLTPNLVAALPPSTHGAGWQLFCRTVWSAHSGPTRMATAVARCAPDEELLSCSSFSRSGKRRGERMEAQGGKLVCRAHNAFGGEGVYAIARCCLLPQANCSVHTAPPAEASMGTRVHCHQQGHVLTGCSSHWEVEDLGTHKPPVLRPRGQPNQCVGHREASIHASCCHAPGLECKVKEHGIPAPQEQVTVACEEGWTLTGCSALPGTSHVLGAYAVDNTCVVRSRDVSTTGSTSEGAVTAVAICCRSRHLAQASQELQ
T1 sequence (Q8NBP7 31-152 partner limits assumed): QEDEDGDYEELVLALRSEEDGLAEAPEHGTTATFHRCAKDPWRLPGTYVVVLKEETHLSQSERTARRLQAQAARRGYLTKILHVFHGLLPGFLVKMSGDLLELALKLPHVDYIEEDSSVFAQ

Compound	up-regulation of endogenously expressed LDLR (PCSK9/LDLR interaction [1])	EC50 (PCSK9/LDLR interaction [1]) [nM]	increase in the LDLR (intracellular recombinant LDLR upregulation) as comparable to control (PCSK9/LDLR interaction [2])	EC50 (PCSK9/LDLR interaction [2]) [nM]	IC50s (increase in the LDLR) (PCSK9/LDLR interaction [2])
CC(C)(C(=O)NCc1ccco1)n1cc(NC(=O)c2cccnc2)cn1 [SBC-110,424]	concentration dependent up-regulation	2000	concentration dependent increase; also recorded: significant potency	3500	low uM range
Cc1cc(C(=O)C2=C(O)C(=O)N(CCCN3CCOCC3)C2c2ccncc2)ccc1OCc1ccccc1 (stereo not shown) [SBC-115,076]	concentration dependent up-regulation	430	concentration dependent increase	3100	low uM range

Source: US20170290806A1, “PCSK9 Inhibitors and Methods of Use Thereof” (Temple University-Of The Commonwealth System of Higher …, priority 2014, published 2017)
